The values below come from patent US20220202052A1, “AROMATIC ALKAMIDES AND METHODS OF USE THEREOF IN TASTE MODULATION” (INTERNATIONAL FLAVORS & FRAGRANCES INC., priority 2019, published 2022).

Common to all, as to format: in vivo, human
Experiment [1] is described as follows: Trained taste panel, individual alkamides and blend vs ethanol extract. To be noted: 5% pea protein isolate with 200 μl ethanol, levels per sample in Table 12; for Liking Score: 1 is best, 10 is worst. The protocol:
Additional compositions were prepared (Table 12) and assessed by a trained taste panel for taste modulating activity as compared to an ethanol extract of L. meyenii. The protein control sample was a 5% pea protein isolate solution with 200 μl of ethanol added thereto.

Experiment [2] in a line: Sensory analysis of aromatic alkamide fractions by trained taste panel. To be noted: 0.5 ppm in 4% pea protein isolate solution. The protocol:
Sensory analysis of the aromatic alkamides was carried out. Specifically, each isolated fraction, corresponding to each of the aromatic alkamides in Table 7 (samples 14 to 21) (0.5 ppm), was added to a 4% pea protein isolate solution and the ability of the fraction to mask protein off-taste, bitterness, and/or astringency was assessed by a trained taste panel.

Experiment [3] can be described thus: Modulation of umami perception, trained panel. Conditions: 0.5 ppm in 0.4% Chicken Bouillon solution. The protocol:
The ability of L. meyenii extracts and fractions thereof to modulate umami flavors was determined by adding 25 ppm of an ethanolic extract of L. meyenii root (Example 1), 2 ppm of an ethyl acetate layer of a crude ethanolic extract, or 0.5 ppm of a fraction enriched in N-benzyloctadecanamide to a 0.4% Chicken Bouillon solution (Knorr Chicken Bouillon). Sensory analyses of the above-referenced compositions were carried out by a trained panel, the results of which are presented in Table 10.

SMILES strings stand for the structures.

Take `CCCCCCCCCCCCCCCC(=O)NCc1ccccc1` [Macamide 1, N-benzylhexadecanamide]: in experiment [1], the “Off Taste: Astringent (intensity)” value is 2, the “Off Taste: Beany (intensity)” value was found to be 3, the “Off Taste: Bitter (intensity)” value stood at 2 and the “Off Taste: Burnt (intensity)” value was 0. In experiment [1], the “Off Taste: Chalky (intensity)” value was determined as 2, the “Off Taste: Earthy (intensity)” value is on record as 2, the “Off Taste: Fishy (intensity)” value is listed as 0 and the “Off Taste: Gritty (intensity)” value was 2. In experiment [1], the “Off Taste: Metallic/Unpleasant (intensity)” value is recorded as 1, the “Off Taste: Nutty (intensity)” value is given as 0, the “Off Taste: Sour (intensity)” value worked out at 2 and the “Liking Score” value worked out at 1.
For `CCCCC/C=C\C/C=C\CCCCCCCC(=O)NCc1ccccc1` [N-Benzyl linoleamide, N-Benzyllinoleamide], in experiment [2], the “Sensory taste in 4% protein base” value is recorded as “Little masking”.
On the same count and under the same terms, the same measure for `CC/C=C\C/C=C\C/C=C\CCCCCCCC(=O)NCc1ccccc1` [N-Benzyl linolenamide, N-Benzyllinolenamide]: “Moderate masking”.
Take `CCCCCCCCC/C=C/C=C/C(=O)CCCC(=O)NCc1ccccc1` [Macamide 2]: the “Sensory taste in 4% protein base” value in experiment [2] was “Good masking”. Also, in experiment [1], the “Off Taste: Astringent (intensity)” value came to 2, the “Off Taste: Beany (intensity)” value worked out at 5, the “Off Taste: Bitter (intensity)” value stood at 3 and the “Off Taste: Burnt (intensity)” value is 0. In experiment [1], the “Off Taste: Chalky (intensity)” value worked out at 2, the “Off Taste: Earthy (intensity)” value is on record as 2, the “Off Taste: Fishy (intensity)” value was 0 and the “Off Taste: Gritty (intensity)” value was 2. Besides, in experiment [1], the “Off Taste: Metallic/Unpleasant (intensity)” value is 1, the “Off Taste: Nutty (intensity)” value is on record as 2, the “Off Taste: Sour (intensity)” value was 3 and the “Liking Score” value came to 2.
Take `CCCCCCCC/C=C\CCCCCCCC(=O)NCc1ccccc1` [N-Benzyloleamide]: in experiment [2], the “Sensory taste in 4% protein base” value is given as “Little masking”. Besides, in experiment [1], the “Off Taste: Astringent (intensity)” value is listed as 4, the “Off Taste: Beany (intensity)” value amounted to 5, the “Off Taste: Bitter (intensity)” value was determined as 2 and the “Off Taste: Burnt (intensity)” value is 0. Further, in experiment [1], the “Off Taste: Chalky (intensity)” value worked out at 6, the “Off Taste: Earthy (intensity)” value is recorded as 2, the “Off Taste: Fishy (intensity)” value is on record as 0 and the “Off Taste: Gritty (intensity)” value was determined as 4. In experiment [1], the “Off Taste: Metallic/Unpleasant (intensity)” value turned out to be 2, the “Off Taste: Nutty (intensity)” value is listed as 2, the “Off Taste: Sour (intensity)” value amounted to 2 and the “Liking Score” value stood at 2.
As for `CCCCCCCCCCCCCCCCCC(=O)NCc1ccccc1` [N-Benzyloctadecanamide, N-Benzyl octadecanamide], the “Chicken Bouillon sensory (umami modulation)” value in experiment [3] is “Showed some enhancement”. Besides, in experiment [1], the “Off Taste: Astringent (intensity)” value amounted to 2, the “Off Taste: Beany (intensity)” value is listed as 3, the “Off Taste: Bitter (intensity)” value came to 2 and the “Off Taste: Burnt (intensity)” value is 0. Also, in experiment [1], the “Off Taste: Chalky (intensity)” value is on record as 2, the “Off Taste: Earthy (intensity)” value came out at 2, the “Off Taste: Fishy (intensity)” value was determined as 0 and the “Off Taste: Gritty (intensity)” value was 2. In experiment [1], the “Off Taste: Metallic/Unpleasant (intensity)” value came to 2, the “Off Taste: Nutty (intensity)” value turned out to be 2, the “Off Taste: Sour (intensity)” value is given as 2 and the “Liking Score” value is on record as 1.
